The nature of data set [1]: (§1) Cytotoxicity against human MCF7a cells expressing Tet-off-3betaHSD1-Arom assessed as inhibition of TST-stimulated cell proliferation measured after 10 days. Type of data set: functional, cell-based. The conditions noted are these: 240 h.
The next data set deals with MCF7a. Described as §1. Type of data set: functional, cell-based.
In another data set the target is T1, Aromatase (Homo sapiens, UniProt P11511).
T1 sequence (P11511 whole entry): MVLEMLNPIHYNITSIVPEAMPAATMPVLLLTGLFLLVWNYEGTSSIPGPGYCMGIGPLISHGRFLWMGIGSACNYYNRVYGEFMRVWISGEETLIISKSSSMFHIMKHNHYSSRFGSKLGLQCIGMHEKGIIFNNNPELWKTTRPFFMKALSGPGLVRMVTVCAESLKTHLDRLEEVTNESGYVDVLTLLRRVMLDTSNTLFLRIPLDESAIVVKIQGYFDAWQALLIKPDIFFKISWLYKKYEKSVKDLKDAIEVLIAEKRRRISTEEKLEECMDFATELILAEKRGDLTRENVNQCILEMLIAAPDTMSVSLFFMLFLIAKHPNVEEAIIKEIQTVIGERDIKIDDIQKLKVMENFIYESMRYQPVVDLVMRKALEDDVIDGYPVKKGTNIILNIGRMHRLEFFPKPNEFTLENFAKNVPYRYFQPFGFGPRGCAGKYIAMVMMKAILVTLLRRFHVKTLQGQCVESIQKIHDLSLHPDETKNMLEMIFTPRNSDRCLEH
The data set is described as follows: Inhibition of human placental aromatase using [3H]-1beta-androstenedione as substrate after 16 hrs by [3H]-water method. The conditions noted are these: for inhibition (INH): human, 16 h.

Regarding `C[C@]12C=CC(=O)C=C1[C@H](OCC#CCO)C[C@@H]1[C@@H]2CC[C@]2(C)C(=O)CC[C@@H]12`, in data set [1], the EC50 came to 0.3 nM. Besides, in the data set on MCF7a, the inhibition entry was “Dose-dependent effect”. Further, on Aromatase, the IC50 was determined as 20 nM and the “inhibition (INH)” value is “Dose-dependent effect”.
In the case of `CCO[C@@H]1C[C@@H]2[C@H](CC[C@]3(C)C(=O)CC[C@@H]23)[C@@]2(C)C=CC(=O)C=C12`, at Aromatase, 18100 nM corresponded to half-maximal inhibition (IC50) and the “inhibition (INH)” value is on record as “Dose-dependent effect”.
`CCCC#CCO[C@@H]1C[C@@H]2[C@H](CC[C@]3(C)C(=O)CC[C@@H]23)[C@@]2(C)C=CC(=O)C=C12`: the concentration giving a half-maximal response (EC50) in data set [1] was 3.4 nM. Further, the inhibition result in the data set with MCF7a is “Dose-dependent effect”. In addition, on Aromatase, inhibition was half-maximal at 83 nM (IC50) and the “inhibition (INH)” value is listed as “Dose-dependent effect”.
In the case of `N#Cc1ccc(C(c2ccc(C#N)cc2)n2cncn2)cc1` [LETROZOLE], in data set [1], the concentration giving a half-maximal response (EC50) came to 0.004 nM. Also, the “inhibition (INH)” value against Aromatase is given as “Dose-dependent effect”.
With `CC#CCO[C@@H]1C[C@@H]2[C@H](CC[C@]3(C)C(=O)CC[C@@H]23)[C@@]2(C)C=CC(=O)C=C12`, in data set [1], the concentration for a half-maximal effect (EC50) was found to be 1.7 nM. In the data set with MCF7a, the inhibition result was “Dose-dependent effect”. For the same molecule, on Aromatase, the half-inhibitory concentration (IC50) is 112 nM and the “inhibition (INH)” value is given as “Dose-dependent effect”.
Regarding `CCCCCCCC#CCO[C@@H]1C[C@@H]2[C@H](CC[C@]3(C)C(=O)CC[C@@H]23)[C@@]2(C)C=CC(=O)C=C12`, the inhibition entry in the data set with MCF7a is “Dose-dependent effect”. Moreover, at Aromatase, the 50% inhibitory concentration (IC50) is 2180 nM and the “inhibition (INH)” value was “Dose-dependent effect”.
On to `C[C@]12CCC(=O)C(O)=C1CC[C@@H]1[C@@H]2CC[C@]2(C)C(=O)CC[C@@H]12` [FORMESTANE], for which, on Aromatase, the midpoint of inhibition, the IC50, lay at 48.6 nM and the “inhibition (INH)” value is recorded as “Dose-dependent effect”.
As for `CCCCC#CCO[C@@H]1C[C@@H]2[C@H](CC[C@]3(C)C(=O)CC[C@@H]23)[C@@]2(C)C=CC(=O)C=C12`, the 50% effective concentration (EC50) in data set [1] stood at 5.4 nM. Also, in the data set with MCF7a, the inhibition entry is “Dose-dependent effect”. Moreover, at Aromatase, 181 nM corresponded to half-maximal inhibition (IC50) and the “inhibition (INH)” value is reported as “Dose-dependent effect”.
Take `CO[C@@H]1C[C@@H]2[C@H](CC[C@]3(C)C(=O)CC[C@@H]23)[C@@]2(C)C=CC(=O)C=C12`: at Aromatase, it took 5200 nM to reach half-maximal inhibition (IC50) and the “inhibition (INH)” value is “Dose-dependent effect”.
Turning to `CCC#CCO[C@@H]1C[C@@H]2[C@H](CC[C@]3(C)C(=O)CC[C@@H]23)[C@@]2(C)C=CC(=O)C=C12`, the concentration giving a half-maximal response (EC50) in data set [1] stood at 0.03 nM. Also, in the data set with MCF7a, the inhibition result is “Dose-dependent effect”. The “inhibition (INH)” value against Aromatase was “Dose-dependent effect”.
